In assay [1] the test system is hepatitis B virus surface antigen (HBs). As to the kind of experiment: Hepatitis-vaccine enhancing activity (adjuvant activity): anti-HBs IgG in mouse serum by ELISA. Format: in vivo, female CDF1 mice. As to conditions: Experiment 2, 2000-fold dilution. The protocol: A compound of the present invention was dissolved in lipidmicrosphere (1 mg/ml). On the other hand, a solution of hepatitis B virus surface antigen (HBs) in physiological saline was prepared (50 μg/ml). The above solutions in equal amounts were mixed to prepare a test solution. A control solution was prepared by the exclusion of the compound of the present invention from said test solution. A mixture of a suspension of aluminium hydroxide gel in physiological saline (1 mg/ml) and said hepatitis vaccine preparation in equal amounts was prepared as another control solution. The test solution (0.2 ml) was intraperitoneally administered to each mouse in one group consisting of seven female CDF1 mice.
Blood samples were collected from the fundus ocluli vein of each mouse every week after the administration and then centrifuged to obtain serums. Three weeks after the administration, 0.2 ml of the test liquid was intraperitoneally administered again to each mouse for secondary stimulation. Then blood collecting was conducted every week to obtain serums after the application of the secondary stimulation, in the same manner as that described above.
The amount of the IgG antibodies against the hepatitis B virus surface antigens (HBs) in the serums thus obtained was determined with an ELISA method.
Background: ELISA stands for enzyme-linked immunosorbent assay.

Assay [2] relates to influenza HA vaccine (B/Nagasaki/1/87 strain). Format: in vivo, female CDF1 mice. As to conditions: Experiment 2, 8000-fold dilution.
[3] abbreviates: 4 W (after secondary stimulation at 3 weeks).
Where [4] appears, read: 5 W (after secondary stimulation at 3 weeks).

Like-named read-outs stand apart in the source and are kept apart here.

With `CCCCCCCCCCCCCCCC(=O)O[C@H](CCCCCCCCCCC)CC(=O)O[C@H]1O[C@H](CO)[C@@H](O)[C@H](O[C@H](C)C(=O)N[C@@H](C)C(=O)N[C@H](CCC(=O)OC)C(N)=O)[C@H]1NC(C)=O` [Example 17, N-[2-0-{2-Acetamido-2,3-dideoxy-1-0-((3R)-3-hexadecanoyloxytetradecanoyl)-α-D-glucopyranos-3-yl}-D-lactoyl]-L-alanyl-D-isoglutamine methylester], the “Anti-HBs IgG antibody level in serum (ELISA absorbance at 415 nm)” value (from here on “Anti-HBs IgG antibody level in serum”) stood at 0.001 ± 0.004 O.D 415 nm in assay [1] (1 W); 0.026 ± 0.001 O.D 415 nm in assay [1] (2 W); 0.051 ± 0.001 O.D 415 nm in assay [1] (3 W); 0.642 ± 0.021 O.D 415 nm in assay [1] (setting [3]); 0.615 ± 0.021 O.D 415 nm in assay [1] (setting [4]). Besides, the “Anti HA serum antigen value (average value ± S.D.)” value (“Anti HA serum antigen value” for short) came out at 0.010 ± 0.002 O.D 415 nm in assay [2] (1 W); 0.122 ± 0.006 O.D 415 nm in assay [2] (2 W); 0.191 ± 0.001 O.D 415 nm in assay [2] (3 W); 0.611 ± 0.017 O.D 415 nm in assay [2] (setting [3]); 0.696 ± 0.014 O.D 415 nm in assay [2] (setting [4]).

As for `CCCCCCCCCCCCCCCCCC(=O)OC[C@H]1O[C@H](OC(=O)C[C@@H](CCCCCCCCCCC)OC(=O)CCCCCCCCCCCCCCC)[C@H](NC(C)=O)[C@@H](O[C@H](C)C(=O)N[C@@H](C)C(=O)N[C@H](CCC(=O)OC)C(N)=O)[C@@H]1O` [Example 18, N-[2-0-{2-Acetamido-2,3-dideoxy-6-0octadecanoyl-1-0-((3R)-3-hexadecanoyloxytetradecanoyl)-α-D-glucopyranos-3-yl}-D-lactoyl]-L-alanyl-D-isoglutamine methylester], the “Anti-HBs IgG antibody level in serum” value in assay [1] (1 W) amounted to 0 O.D 415 nm; in assay [1] (2 W), 0.035 ± 0.007 O.D 415 nm; in assay [1] (3 W) it was 0.050 ± 0.004 O.D 415 nm; in assay [1] (setting [3]), 0.481 ± 0.006 O.D 415 nm; in assay [1] (setting [4]) it was 0.375 ± 0.008 O.D 415 nm. The “Anti HA serum antigen value” value in assay [2] (1 W) came out at 0 O.D 415 nm; in assay [2] (2 W) it was 0.052 ± 0.004 O.D 415 nm; in assay [2] (3 W), 0.075 ± 0.001 O.D 415 nm; in assay [2] (setting [3]), 0.370 ± 0.005 O.D 415 nm; in assay [2] (setting [4]), 0.360 ± 0.001 O.D 415 nm.

`CCCCCCCCCCCCCCCC(=O)O[C@H](CCCCCCCCCCC)CC(=O)S[C@@H]1O[C@H](CO)[C@@H](O)[C@H](O[C@H](C)C(=O)N[C@@H](C)C(=O)N[C@H](CCC(=O)OC)C(N)=O)[C@H]1NC(C)=O` [Example 19]: the “Anti-HBs IgG antibody level in serum” value is 0 O.D 415 nm in assay [1] (1 W); 0.023 ± 0.000 O.D 415 nm in assay [1] (2 W); 0.042 ± 0.001 O.D 415 nm in assay [1] (3 W); 0.536 ± 0.011 O.D 415 nm in assay [1] (setting [3]); 0.521 ± 0.012 O.D 415 nm in assay [1] (setting [4]). For the same compound, the “Anti HA serum antigen value” value in assay [2] (1 W) stood at 0 O.D 415 nm; in assay [2] (2 W), 0.125 ± 0.003 O.D 415 nm; in assay [2] (3 W) it was 0.187 ± 0.001 O.D 415 nm; in assay [2] (setting [3]), 0.872 ± 0.002 O.D 415 nm; in assay [2] (setting [4]), 0.936 ± 0.006 O.D 415 nm.

Regarding `CCCCCCCCCCCCCCCCCC(=O)OC[C@H]1O[C@@H](SC(=O)C[C@@H](CCCCCCCCCCC)OC(=O)CCCCCCCCCCCCCCC)[C@H](NC(C)=O)[C@@H](O[C@H](C)C(=O)N[C@@H](C)C(=O)N[C@H](CCC(=O)OC)C(N)=O)[C@@H]1O` [Example 20, N-[2-0-{2-Acetamido-2,3-dideoxy-6-0-octadecanoyl-1-S-((3R)-3-hexadecanoyloxytetradecanoyl)-1-thio-β-D-glucopyranos-3-yl}-D-lactoyl]-L-alanYl-D-isoglutamine methylester], the “Anti-HBs IgG antibody level in serum” value in assay [1] (1 W) worked out at 0.002 ± 0.001 O.D 415 nm; in assay [1] (2 W), 0.044 ± 0.005 O.D 415 nm; in assay [1] (3 W), 0.056 ± 0.003 O.D 415 nm; in assay [1] (setting [3]), 0.814 ± 0.018 O.D 415 nm; in assay [1] (setting [4]), 0.708 ± 0.002 O.D 415 nm. In addition, the “Anti HA serum antigen value” value in assay [2] (1 W) was determined as 0.001 ± 0.001 O.D 415 nm; in assay [2] (2 W) it was 0.071 ± 0.001 O.D 415 nm; in assay [2] (3 W), 0.110 ± 0.008 O.D 415 nm; in assay [2] (setting [3]) it was 0.840 ± 0.011 O.D 415 nm; in assay [2] (setting [4]) it was 0.857 ± 0.023 O.D 415 nm.

Regarding `CCCCCCCCCCCCCCCCCC(=O)O[C@H](CCCCCCCCCCC)CC(=O)O[C@H]1O[C@H](CO)[C@@H](O)[C@H](O[C@H](C)C(=O)N[C@@H](C)C(=O)N[C@H](CCC(=O)OC)C(N)=O)[C@H]1NC(C)=O` [Example 21, N-[2-0-{2-Acetamido-2,3-dideoxy-1-0-((3R)-3-octadecanoyloxytetradecanoyl)-α-D-glucopyranos-3-yl}-D-lactoyl]-L-alanyl-D-isoglutamine methylester], the “Anti-HBs IgG antibody level in serum” value in assay [1] (1 W) is recorded as 0.006 ± 0.004 O.D 415 nm; in assay [1] (2 W), 0.038 ± 0.000 O.D 415 nm; in assay [1] (3 W) it was 0.058 ± 0.007 O.D 415 nm; in assay [1] (setting [3]) it was 0.517 ± 0.006 O.D 415 nm; in assay [1] (setting [4]), 0.498 ± 0.011 O.D 415 nm. For the same compound, the “Anti HA serum antigen value” value was found to be 0 O.D 415 nm in assay [2] (1 W); 0.060 ± 0.001 O.D 415 nm in assay [2] (2 W); 0.097 ± 0.002 O.D 415 nm in assay [2] (3 W); 0.748 ± 0.003 O.D 415 nm in assay [2] (setting [3]); 0.758 ± 0.012 O.D 415 nm in assay [2] (setting [4]).

`CCCCCCCCCCCCCCCCCC(=O)OC[C@H]1O[C@H](OC(=O)C[C@@H](CCCCCCCCCCC)OC(=O)CCCCCCCCCCCCCCCCC)[C@H](NC(C)=O)[C@@H](O[C@H](C)C(=O)N[C@@H](C)C(=O)N[C@H](CCC(=O)OC)C(N)=O)[C@@H]1O` [Example 22]: the “Anti-HBs IgG antibody level in serum” value in assay [1] (1 W) is 0.005 ± 0.004 O.D 415 nm; in assay [1] (2 W), 0.036 ± 0.007 O.D 415 nm; in assay [1] (3 W) it was 0.053 ± 0.001 O.D 415 nm; in assay [1] (setting [3]), 0.294 ± 0.006 O.D 415 nm; in assay [1] (setting [4]) it was 0.254 ± 0.002 O.D 415 nm. Also, the “Anti HA serum antigen value” value in assay [2] (1 W) is listed as 0.001 ± 0.004 O.D 415 nm; in assay [2] (2 W), 0.065 ± 0.001 O.D 415 nm; in assay [2] (3 W), 0.100 ± 0.003 O.D 415 nm; in assay [2] (setting [3]), 0.411 ± 0.009 O.D 415 nm; in assay [2] (setting [4]) it was 0.492 ± 0.002 O.D 415 nm.

The values are drawn from patent US5075287A, “Muramyl peptide derivatives and immunoregulating compositions containing them” (priority 1989, dated 1991).
